Consider two compounds from US20050059608A1, “Pharmaceutical compounds” (priority 2001, published 2005).

Data set [1] in a line: Hydrolysis in 10% rabbit liver homogenate. It is filed as in vitro ADME. As to conditions: 10% rabbit liver homogenate (9,000 g supernatant), pH 7.4, 37° C., read-out: t1/2 of hydrolysis in rabbit liver homogenate. The protocol: (§1) The HPLC system used consisted of a Beckman System Gold Programmable Solvent Module 126, Beckman System Gold Detector Module 166 with variable wavelength UV detector (set at 254 nm) and a Beckman System Gold Autosampler 507e. Separations were accomplished on a Purospher RP-18 reverse-phase column, 12.5 cm×4.0 mm i.d., 5 μm (Merck, Darmstadt, Germany). The chromatographic conditions were as follows: injection volume, 50 μl; column temperature, 40° C.; flow rate, gradient/isocratic at 1.0 ml/min. The mobile phase consisted of various proportions of methanol/water mixture (90:10) and a citrate/phosphate buffer pH 2.2.
The rabbit liver was homogenized with approximately four equivalent volumes of isotonic phosphate buffer at pH 7.4 using an X-1020 homogenizer (Ystral, Germany). The homogenate was centrifuged for 90 min at 9,000 g and 4° C. with a Biofuge 28 RS centrifuge (Heraeus Instruments, Germany). The supernatant was stored at −80° C. until analysis. An appropriate amount was dissolved in one volume of preheated 20% liver homogenate. The solution was then incubated at 37° C. At appropriate time intervals, samples (300 μl) were withdrawn. Samples were pretreated with 300 μl of methanol to terminate enzymatic activity. […] The residue was dissolved in 400 μl of the mobile phase buffer and analyzed by HPLC.

Data set [2] in a line: Hydrolysis in aqueous solution (chemical hydrolysis in phosphate buffer). As to conditions: aqueous phosphate buffer 0.16 M; for half-life: read-out: Pseudo-first order half-time (t1/2) for chemical hydrolysis (converted). It is filed as physicochemical. The procedure: as §1
The rate of chemical hydrolysis was determined in aqueous phosphate buffer solution (0.16 M) at pH 7.4, 5.0, and 1.2 at 37° C. An appropriate amount was dissolved in 10 ml of preheated buffer and the solution was placed in a thermostatically controlled water bath at 37° C. At appropriate time intervals, samples were taken and analyzed for the remaining codrug by HPLC. Pseudo-first order half-time (t1/2) for the hydrolysis was calculated from the slope of the linear portion of the plotted logarithm of remaining codrug vs. time.

For data set [3] the following is noted: after oral administration; cited from earlier work.

As to `CCN(CC)C(=O)/C(C#N)=C/c1cc(OC(=O)N[C@@H](Cc2ccc(O)c(O)c2)C(=O)OC)c(O)c([N+](=O)[O-])c1` [Example 1, (S)-2-{5-[(E)-2-cyano-2-(diethylcarbamoyl)vinyl]-2-hydroxy-3-nitrophenoxycarbonylamino}-3-(3,4-dihydroxyphenyl)propionic acid methyl ester], the half-life in data set [1] is 7 min; in data set [2] (pH 5.0, 37° C.), 1.4 h; in data set [2] (pH 7.4, 37° C.), 1.1 h. Further, the “Pseudo-first order half-time (t1/2) for chemical hydrolysis” value in data set [2] (pH 1.2, 37° C.) was found to be 12.1 h.

Turning to `CCN(CC)C(=O)/C(C#N)=C/c1cc(O)c(O)c([N+](=O)[O-])c1` [entacapone, (E)2-cyano-N,N-diethyl-3-(3,4-dihydroxy-5-nitrophenyl)propenamide], the bioavailability of entacapone in data set [3] is recorded as 29-46%.
